Laboratory results: US11505617B2, “Benzodiazepine derivatives” (IMMUNOGEN, INC., priority 2009, dated 2022)
Where two headings read alike, the source gives them in different places.

Key:
Ramos cells = test: In vitro cytotoxicity, Ramos cells; assay type: cell-based; details: Homo sapiens, read-out: IC50, in vitro antiproliferative activity
From the text: (§1) The in vitro cytotoxicity of the cytotoxic compounds (e.g., indolinobenzodiazepine or oxazolidinobenzodiazepine), derivatives thereof, dimers thereof or conjugates thereof of the present invention can be evaluated for their ability to suppress proliferation of various cancerous cell lines in vitro (Tables 1, 2 in FIGS. 31, 32.). For example, cell lines such as the human breast carcinoma line SK-Br-3, or the human epidermoid carcinoma cell line KB, can be used for the assessment of cytotoxicity of these new compounds. Cells to be evaluated can be exposed to the compounds for 72 hours and the surviving fractions of cells measured in direct assays by known methods. IC50 values can then be calculated from the results of the assays.
(§2) Conjugates of cell-binding agents with cytotoxic agents of the invention can be evaluated for their ability to suppress proliferation of various unwanted cell lines in vitro. For example, cell lines such as the human colon carcinoma line COLO 205, the rhabdomyosarcoma cell line RH-30, and the multiple myeloma cell line MOLP-8 can be used for the assessment of cytotoxicity of these conjugates. Cells to be evaluated can be exposed to the compounds for 1-5 days and the surviving fractions of cells measured in direct assays by known methods. IC50 values can then be calculated from the results of the assays.
General Procedure Used: Samples of IGN Free Drugs or IGN Conjugates were added to 96-well flat bottomed tissue culture plates and titrated using serial dilutions to cover the desired molar range. Antigen positive (Ag+) or Antigen negative (Ag−) cells were added to the wells in specific cell densities in such a way that there were triplicate samples for each drug concentration for each corresponding cell line. The plates were then incubated at 37° C. in an atmosphere of 5% CO2 for 4-5 days depending on the cell line. COLO 205 (1,000 cells/well), Namalwa (3,000 cells/well)—4 days; RH30(1,000 cells/well), Ramos (10,000 cells/well), KB (1,000 cells/well)—5 days)
(§3) At the end of the incubation period cytotoxic potencies were then assessed using a WST-based cell viability assay and surviving cells were measured by developing with WST (2-7 hours). The absorbance in each well was measured and the surviving fraction of cells at each concentration was plotted to reveal the cytotoxicity and antigen specificity (of the conjugates).

[1] = tested on: double stranded DNA (dsDNA); test: DNA probe assay for IGN dimer binding and alkylation to double stranded DNA; details: for binding and covalent adduct formation with double stranded DNA: dsDNA containing guanine residues on opposite strands
Procedure: (§4) Reaction conditions: dsDNA ([…] final concentration) in 100 mM TRIS, 1 mM EDTA, pH 8 was mixed with 3.7 molar equivalents of IGN-01 (compound 18), IGN-02 (compound 19), or IGN-09 (compound 15) dissolved in acetonitrile (final acetonitrile concentration <2% by volume). The reaction was incubated at 15° C. (below TM of the dsDNA) and 10 μl aliquots are injected on reverse phase-HPLC at various time points after mixing
(§5) HPLC conditions: Waters Xbridge C8 2.1×50 mm column, Buffer A: 100 mM hexafluoroisopropanol, 16.3 mM triethylamine, in water, Buffer B: Methanol; 98% A→100% B over 32 min, 0.25 ml/min flow, 60° C. column heat, 260 nm detection. Areas under the curve (AUC) for the probe DNA peak and the resulting IGN/DNA adduct peak are used to determine the % crosslinking at each time point of incubation.
(§6) DNA annealing: single stranded DNA (Invitrogen) was annealed into dsDNA using a Peltier thermal cycler (PTC-200, MJ Research). 1 mM DNA in 100 mM TRIS, 1 mM EDTA pH 8 was heated to 80° C. and then gradually cooled to 4° C. over 90 min in 15 degree steps. The resulting dsDNA was kept at 4° C. until used in the assay.

[2] = tested on: single stranded DNA (ssDNA); test: DNA probe assay control with single stranded DNA; assay type: binding; details: control experiments
Procedure: as §4, §5, §6

COLO205-MDR = test: In vitro cytotoxicity, multi-drug resistant COLO 205 MDR cells; assay type: cell-based, human; details: free compound; multi-drug resistant line vs COLO205
From the text: as §1
Conjugates of cell-binding agents with cytotoxic agents of the invention can be evaluated for their ability to suppress proliferation of various unwanted cell lines in vitro. […] Cells to be evaluated can be exposed to the compounds for 1-5 days and the surviving fractions of cells measured in direct assays by known methods. IC50 values can then be calculated from the results of the assays. […]
At the end of the incubation period cytotoxic potencies were then assessed using a WST-based cell viability assay and surviving cells were measured by developing with WST (2-7 hours). […]

RH30 cells = test: In vitro cytotoxicity of conjugates, RH30 cells; assay type: cell-based, human
From the text: as §2
General Procedure Used: Samples of IGN Free Drugs or IGN Conjugates were added to 96-well flat bottomed tissue culture plates and titrated using serial dilutions to cover the desired molar range. Antigen positive (Ag+) or Antigen negative (Ag−) cells were added to the wells in specific cell densities in such a way that there were triplicate samples for each drug concentration for each corresponding cell line. […]
as §3

Molecule	IC50 (Ramos cells; Ramos) [pM]	binding and covalent adduct formation with double stranded DNA [1]	covalent adduct formation with single stranded DNA [2]	other results
COC(=O)CCCCOc1cc(COc2cc3c(cc2OC)C(=O)N2c4ccccc4C[C@H]2C=N3)cc(COc2cc3c(cc2OC)C(=O)N2c4ccccc4C[C@H]2C=N3)c1 [IGN03]	< 1	–	–	–
COC(=O)COc1cc(COc2cc3c(cc2OC)C(=O)N2c4ccccc4C[C@H]2C=N3)cc(COc2cc3c(cc2OC)C(=O)N2c4ccccc4C[C@H]2C=N3)c1 [IGN05]	< 1	–	–	–
COc1cc2c(cc1OCc1cccc(COc3cc4c(cc3OC)C(=O)N3c5ccccc5C[C@H]3C=N4)c1)N=C[C@@H]1Cc3ccccc3N1C2=O [IGN-01]	–	bind and covalently adduct	did not form covalent adducts	rate of DNA binding, dependence on DNA sequence ([1]; DNA with internal GATC motif vs GTAC sequence): binds faster to DNA containing an internal GATC motif; reaction with DNA probe substituted with deoxyInosine in place of guanine ([1]; probe containing no C-2 amino group): no reaction; IC50 (Ramos cells; free compounds with and without linker, Ramos cell line (Table 2)): < 1 pM
COc1cc2c(cc1OCc1cccc(COc3cc4c(cc3OC)C(=O)N3COC[C@H]3C=N4)c1)N=C[C@@H]1COCN1C2=O [IGN-02]	–	bind and covalently adduct	did not form covalent adducts	–
COc1cc2c(cc1OCCCOc1cc3c(cc1OC)C(=O)N1c4ccccc4C[C@H]1C=N3)N=C[C@@H]1Cc3ccccc3N1C2=O [IGN-09]	< 1	bind and covalently adduct	did not form covalent adducts	fold higher IC50 on COLO205-MDR than COLO205 (COLO205-MDR): 4 fold
huN901-IGN03 (conjugate, chains of the INN, looked up, IGN03 indolinobenzodiazepine payload) VH: QVQLVESGGGVVQPGRSLRLSCAASGFTFSSFGMHWVRQAPGKGLEWVAYISSGSFTIYYADSVKGRFTISRDNSKNTLYLQMNSLRAEDTAVYYCARMRKGYAMDYWGQGTLVTVSS VL: DVVMTQSPLSLPVTLGQPASISCRSSQIIIHSDGNTYLEWFQQRPGQSPRRLIYKVSNRFSGVPDRFSGSGSGTDFTLKISRVEAEDVGVYYCFQGSHVPHTFGQGTKVEIK	–	–	–	IC50 (RH30 cells; RH30 cells with an excess of unconjugated huN901 antibody): > 3000 pM; IC50 (RH30 cells; antigen positive RH30 cells): 15 pM
